Measured values from patent US10780099B2, “Injectable neurosteroid formulations containing nanoparticles” (MARINUS PHARMACEUTICALS, INC., priority 2015, dated 2020).
Read-outs that look alike come from different tables or passages of the source.

Key:
[1] = cited from earlier work

SMILES | half-life ([1]; human plasma) | half-life ([1]; human plasma following oral administration) | Tmax ([1]; in vivo) | solubility (Solubility in water)
CC(=O)[C@H]1CC[C@H]2[C@@H]3CC[C@H]4C[C@H](O)CC[C@]4(C)[C@H]3CC[C@]12C [Allopregnanolone, 3α,5α-tetrahydroprogesterone] | about 45 minutes | – | – | –
CC(=O)[C@H]1CC[C@H]2[C@@H]3CC[C@H]4C[C@](C)(O)CC[C@]4(C)[C@H]3CC[C@]12C [Ganaxolone, 3α-hydroxy, 3β-methyl-5α-pregnan-20-one] | – | approximately 20 hours | short | < 1 µg/mL
